Source: ChEMBL document CHEMBL1201861, “Genomics of Drug Sensitity in Cancer screening data, Wellcome Trust Sanger Institute”
Counter-ions that a name gives are not always drawn.

Legend:
[1] = tested on: CPC-N; assay: cells; format: functional, cell-based, Homo sapiens; settings: Homo sapiens, CPC-N;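 further: growth inhibition of CPC-N cells, with a cell viability assay as the readout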
Description: SANGER: Inhibition of human CPC-N cell growth in a cell viability assay.

[2] = tested on: D-542MG; assay: cells; format: functional, cell-based, Homo sapiens; settings: Homo sapiens, D-542MG
Description: SANGER: Inhibition of human D-542MG cell growth in a cell viability assay.

[3] = tested on: DMS-273; assay: cells; format: functional, cell-based, Homo sapiens; settings: Homo sapiens, DMS-273
Description: SANGER: Inhibition of human DMS-273 cell growth in a cell viability assay.

[4] = tested on: DoTc2-4510; assay: cells; format: functional, cell-based, Homo sapiens; settings: Homo sapiens, DoTc2-4510
[5] = tested on: EGI-1; assay: cells; format: functional, cell-based, Homo sapiens; settings: Homo sapiens, EGI-1;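 further: cell viability readout used to gauge growth inhibition of EGI-1 cells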
Description: SANGER: Inhibition of human EGI-1 cell growth in a cell viability assay.

[6] = tested on: EVSA-T; assay: cells; format: functional, cell-based, Homo sapiens; settings: Homo sapiens, EVSA-T;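 further: growth inhibition of EVSA-T cells, read out with a cell viability assay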
Description: SANGER: Inhibition of human EVSA-T cell growth in a cell viability assay.

[7] = tested on: GAMG; assay: cells; format: functional, cell-based, Homo sapiens; settings: Homo sapiens, GAMG;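 further: cell growth inhibition measured by a viability assay in the GAMG human cell line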
Description: SANGER: Inhibition of human GAMG cell growth in a cell viability assay.

[8] = tested on: GCT; assay: cells; format: functional, cell-based, Homo sapiens; settings: Homo sapiens, GCT;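 further: GCT cell line proliferation inhibition, read out with a cell viability assay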
Description: SANGER: Inhibition of human GCT cell growth in a cell viability assay.

[9] = tested on: H4; assay: cells; format: functional, cell-based, Homo sapiens; settings: Homo sapiens, H4
Description: SANGER: Inhibition of human H4 cell growth in a cell viability assay.

[10] = tested on: HCC1419; assay: cells; format: functional, cell-based, Homo sapiens; settings: Homo sapiens, HCC1419;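 further: growth inhibition of human HCC1419 cells, read out as cell viability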
Description: SANGER: Inhibition of human HCC1419 cell growth in a cell viability assay.

[11] = tested on: HSC-4; assay: cells; format: functional, cell-based, Homo sapiens; settings: Homo sapiens, HSC-4;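 further: growth inhibition of human HSC-4 cells, read out with a cell viability assay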
Description: SANGER: Inhibition of human HSC-4 cell growth in a cell viability assay.

[12] = tested on: HuCCT-1; assay: cells; format: functional, cell-based, Homo sapiens, HuCCT1; settings: Homo sapiens, HuCCT-1;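 further: growth inhibition of HuCCT-1 cells, read out by a cell viability assay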
Description: SANGER: Inhibition of human HuCCT1 cell growth in a cell viability assay.

[13] = tested on: K052; assay: cells; format: functional, cell-based, Homo sapiens; settings: Homo sapiens, K052;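 further: Read-out from a cell viability assay, IC50 reflecting suppression of K052 cell growth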
Description: SANGER: Inhibition of human K052 cell growth in a cell viability assay.

[14] = tested on: KMS-12-PE; assay: cells; format: functional, cell-based, Homo sapiens; settings: Homo sapiens, KMS-12-PE;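 further: growth inhibition of human KMS-12-PE cells, measured with a cell viability assay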
Description: SANGER: Inhibition of human KMS-12-PE cell growth in a cell viability assay.

[15] = tested on: KYSE-270; assay: cells; format: functional, cell-based, Homo sapiens; settings: Homo sapiens, KYSE-270;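 further: cell growth inhibition measured with a viability assay in the human KYSE-270 line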
Description: SANGER: Inhibition of human KYSE-270 cell growth in a cell viability assay.

[16] = tested on: LU-165; assay: cells; format: functional, cell-based, Homo sapiens; settings: Homo sapiens, LU-165
Description: SANGER: Inhibition of human LU-165 cell growth in a cell viability assay.

[17] = tested on: LoVo; assay: cells; format: functional, cell-based, Homo sapiens; settings: Homo sapiens, LoVo;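 further: growth inhibition of human LoVo cells, read out with a cell viability assay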
Description: SANGER: Inhibition of human LoVo cell growth in a cell viability assay.

[18] = tested on: MDA-MB-175-VII; assay: cells; format: functional, cell-based, Homo sapiens; settings: Homo sapiens, MDA-MB-175-VII
[19] = tested on: MDA-MB-361; assay: cells; format: functional, cell-based, Homo sapiens; settings: Homo sapiens, MDA-MB-361
[20] = tested on: ME-180; assay: cells; format: functional, cell-based, Homo sapiens; settings: Homo sapiens, ME-180;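 further: cell viability assay measuring growth inhibition of ME-180 cells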
Description: SANGER: Inhibition of human ME-180 cell growth in a cell viability assay.

[21] = tested on: MKN-28; assay: cells; format: functional, cell-based, Homo sapiens; settings: Homo sapiens, MKN-28;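 further: cell viability assay read-out, IC50 reflects suppression of growth of human MKN-28 cells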
Description: SANGER: Inhibition of human MKN28 cell growth in a cell viability assay.

[22] = tested on: NCCIT; assay: SANGER: Inhibition of human NCCIT cell growth in a cell viability assay.; format: functional, cell-based; settings: Homo sapiens, NCCIT
[23] = tested on: NCI-H187; assay: cells; format: functional, cell-based, Homo sapiens; settings: Homo sapiens, NCI-H187;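 further: growth inhibition of NCI-H187 cells, read out as cell viability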
Description: SANGER: Inhibition of human NCI-H187 cell growth in a cell viability assay.

[24] = tested on: NCI-H1963; assay: cells; format: functional, cell-based, Homo sapiens; settings: Homo sapiens, NCI-H1963;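 further: cell growth inhibition of the human line, determined with a cell viability assay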
Description: SANGER: Inhibition of human NCI-H1963 cell growth in a cell viability assay.

[25] = tested on: NCI-H2171; assay: cells; format: functional, cell-based, Homo sapiens; settings: Homo sapiens, NCI-H2171;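 further: growth inhibition of human NCI-H2171 cells, read out by a cell viability assay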
Description: SANGER: Inhibition of human NCI-H2171 cell growth in a cell viability assay.

[26] = tested on: NCI-H2227; assay: cells; format: functional, cell-based, Homo sapiens; settings: Homo sapiens, NCI-H2227;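 further: growth inhibition of the human cell line, read out with a cell viability assay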
Description: SANGER: Inhibition of human NCI-H2227 cell growth in a cell viability assay.

[27] = tested on: NCI-H524; assay: cells; format: functional, cell-based, Homo sapiens; settings: Homo sapiens, NCI-H524;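 further: growth inhibition of human NCI-H524 cells, read out through a cell viability assay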
Description: SANGER: Inhibition of human NCI-H524 cell growth in a cell viability assay.

[28] = tested on: NCI-H64; assay: cells; format: functional, cell-based, Homo sapiens; settings: Homo sapiens, NCI-H64;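 further: growth inhibition of NCI-H64 cells, read out with a cell viability assay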
Description: SANGER: Inhibition of human NCI-H64 cell growth in a cell viability assay.

[29] = tested on: NCI-H650; assay: cells; format: functional, cell-based, Homo sapiens; settings: Homo sapiens, NCI-H650;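 further: growth inhibition of NCI-H650 cells, read out by a viability assay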
Description: SANGER: Inhibition of human NCI-H650 cell growth in a cell viability assay.

[30] = tested on: NUGC-3; assay: cells; format: functional, cell-based, Homo sapiens; settings: Homo sapiens, NUGC-3;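 further: growth inhibition of human NUGC-3 cells, read out with a cell viability assay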
Description: SANGER: Inhibition of human NUGC-3 cell growth in a cell viability assay.

[31] = tested on: OE33; assay: cells; format: functional, cell-based, Homo sapiens; settings: Homo sapiens, OE33;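 further: growth inhibition of human OE33 cells, measured by a cell viability assay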
Description: SANGER: Inhibition of human OE33 cell growth in a cell viability assay.

[32] = tested on: PC-3; assay: cells; format: functional, cell-based, Homo sapiens; settings: Homo sapiens, PC-3;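 further: cell viability assay measuring growth inhibition of PC-3 cells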
Description: SANGER: Inhibition of human PC-3 cell growth in a cell viability assay.

[33] = tested on: PF-382; assay: cells; format: functional, cell-based, Homo sapiens; settings: Homo sapiens, PF-382
Description: SANGER: Inhibition of human PF-382 cell growth in a cell viability assay.

[34] = tested on: SBC-5; assay: cells; format: functional, cell-based, Homo sapiens; settings: Homo sapiens, SBC-5;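 further: cell viability assay read-out, IC50 is the concentration that inhibits growth of the cells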
Description: SANGER: Inhibition of human SBC-5 cell growth in a cell viability assay.

[35] = tested on: SCC-25; assay: cells; format: functional, cell-based, Homo sapiens; settings: Homo sapiens, SCC-25;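 further: growth inhibition of SCC-25 cells, measured with a cell viability assay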
Description: SANGER: Inhibition of human SCC-25 cell growth in a cell viability assay.

[36] = tested on: SIG-M5; assay: cells; format: functional, cell-based, Homo sapiens; settings: Homo sapiens, SIG-M5;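 further: cell viability assay read-out, measuring how strongly growth of cultured human SIG-M5 cells is inhibited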
Description: SANGER: Inhibition of human SIG-M5 cell growth in a cell viability assay.

[37] = tested on: SK-MEL3; assay: cells; format: functional, cell-based, Homo sapiens, SK-MEL-3; settings: Homo sapiens, SK-MEL3;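 further: growth inhibition of human SK-MEL-3 cells, read out with a cell viability assay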
Description: SANGER: Inhibition of human SK-MEL-3 cell growth in a cell viability assay.

[38] = tested on: SW1573; assay: cells; format: functional, cell-based, Homo sapiens; settings: Homo sapiens, SW1573;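 further: growth inhibition of SW1573 cells, read out with a cell viability assay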
Description: SANGER: Inhibition of human SW1573 cell growth in a cell viability assay.

[39] = tested on: SiHa; assay: cells; format: functional, cell-based, Homo sapiens; settings: Homo sapiens, SiHa;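 further: Viability-based readout of growth inhibition in SiHa cells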
Description: SANGER: Inhibition of human SiHa cell growth in a cell viability assay.

[40] = tested on: TALL-1; assay: cells; format: functional, cell-based, Homo sapiens; settings: Homo sapiens, TALL-1;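 further: growth inhibition of cultured human TALL-1 cells, read out by a cell viability assay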
Description: SANGER: Inhibition of human TALL-1 cell growth in a cell viability assay.

[41] = tested on: A2780; assay: cells; format: functional, cell-based, Homo sapiens; settings: Homo sapiens, A2780;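 further: growth inhibition of A2780 cells, read out with a cell viability assay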
Description: SANGER: Inhibition of human A2780 cell growth in a cell viability assay.

[42] = tested on: A-375; assay: cells; format: functional, cell-based, Homo sapiens; settings: Homo sapiens, A-375;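 further: growth inhibition of A375 cells, read out with a cell viability assay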
Description: SANGER: Inhibition of human A375 cell growth in a cell viability assay.

[43] = tested on: BFTC-909; assay: cells; format: functional, cell-based, Homo sapiens; settings: Homo sapiens, BFTC-909
Description: SANGER: Inhibition of human BFTC-909 cell growth in a cell viability assay.

[44] = tested on: C32; assay: cells; format: functional, cell-based, Homo sapiens; settings: Homo sapiens, C32;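 further: cell viability assay, with IC50 reflecting inhibition of C32 cell growth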
Description: SANGER: Inhibition of human C32 cell growth in a cell viability assay.

[45] = tested on: CAL-85-1; assay: cells; format: functional, cell-based, Homo sapiens; settings: Homo sapiens, CAL-85-1;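 further: growth inhibition of human CAL-85-1 cells, read out with a cell viability assay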
Description: SANGER: Inhibition of human CAL-85-1 cell growth in a cell viability assay.

[46] = tested on: UACC-812; assay: cells; format: functional, cell-based, Homo sapiens; settings: Homo sapiens, UACC-812
Description: SANGER: Inhibition of human UACC-812 cell growth in a cell viability assay.

[47] = tested on: YAPC; assay: cells; format: functional, cell-based, Homo sapiens; settings: Homo sapiens, YAPC;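 further: growth inhibition of YAPC cells, measured with a cell viability assay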
Description: SANGER: Inhibition of human YAPC cell growth in a cell viability assay.

**Q.** With `CCC/C=C/C=C/C(=O)O[C@H]1/C(=C/C(=O)OC)C[C@H]2C[C@H]([C@@H](C)O)OC(=O)C[C@H](O)C[C@@H]3C[C@H](OC(C)=O)C(C)(C)[C@](O)(C[C@@H]4C/C(=C/C(=O)OC)C[C@H](/C=C/C(C)(C)[C@]1(O)O2)O4)O3` [BRYOSTATIN 1] as the compound, how does the IC50 [1] read?
**A.** > 8 nM

**Q.** What about the IC50 [2] of the same compound?
**A.** 7.56 nM

**Q.** What about the IC50 [3] of the same compound?
**A.** > 8 nM

**Q.** What about the IC50 [4] of the same compound?
**A.** > 8 nM

**Q.** And the IC50 [5]?
**A.** > 8 nM

**Q.** What about the IC50 [6] of the same compound?
**A.** > 8 nM

**Q.** What about the IC50 [7] of the same compound?
**A.** > 8 nM

**Q.** What about the IC50 [8] of the same compound?
**A.** > 8 nM

**Q.** And the IC50 [9]?
**A.** > 8 nM

**Q.** And the IC50 [10]?
**A.** > 8 nM

**Q.** And the IC50 [11]?
**A.** > 8 nM

**Q.** What about the IC50 [12] of the same compound?
**A.** > 8 nM

**Q.** What about the IC50 [13] of the same compound?
**A.** > 8 nM

**Q.** And the IC50 [14]?
**A.** > 8 nM

**Q.** What about the IC50 [15] of the same compound?
**A.** > 8 nM

**Q.** And the IC50 [16]?
**A.** > 8 nM

**Q.** And the IC50 [17]?
**A.** > 8 nM

**Q.** What about the IC50 [18] of the same compound?
**A.** > 8 nM

**Q.** And the IC50 [19]?
**A.** > 8 nM

**Q.** And the IC50 [20]?
**A.** > 8 nM

**Q.** And the IC50 [21]?
**A.** > 8 nM

**Q.** And the IC50 [22]?
**A.** > 8 nM

**Q.** What about the IC50 [23] of the same compound?
**A.** > 8 nM

**Q.** What about the IC50 [24] of the same compound?
**A.** > 8 nM

**Q.** And the IC50 [25]?
**A.** > 8 nM

**Q.** And the IC50 [26]?
**A.** > 8 nM

**Q.** What about the IC50 [27] of the same compound?
**A.** > 8 nM

**Q.** And the IC50 [28]?
**A.** > 8 nM

**Q.** What about the IC50 [29] of the same compound?
**A.** > 8 nM

**Q.** And the IC50 [30]?
**A.** > 8 nM

**Q.** And the IC50 [31]?
**A.** > 8 nM

**Q.** What about the IC50 [32] of the same compound?
**A.** > 8 nM

**Q.** And the IC50 [33]?
**A.** > 8 nM

**Q.** And the IC50 [34]?
**A.** > 8 nM

**Q.** And the IC50 [35]?
**A.** > 8 nM

**Q.** And the IC50 [36]?
**A.** 1.56 nM

**Q.** What about the IC50 [37] of the same compound?
**A.** > 8 nM

**Q.** And the IC50 [38]?
**A.** > 8 nM

**Q.** What about the IC50 [39] of the same compound?
**A.** > 8 nM

**Q.** What about the IC50 [40] of the same compound?
**A.** > 8 nM

**Q.** What about the IC50 [41] of the same compound?
**A.** > 8 nM

**Q.** What about the IC50 [42] of the same compound?
**A.** > 8 nM

**Q.** What about the IC50 [43] of the same compound?
**A.** > 8 nM

**Q.** What about the IC50 [44] of the same compound?
**A.** > 8 nM

**Q.** What about the IC50 [45] of the same compound?
**A.** 5.52 nM

**Q.** What about the IC50 [46] of the same compound?
**A.** > 8 nM

**Q.** What about the IC50 [47] of the same compound?
**A.** > 8 nM

**Q.** What does the source list for `COC1=CC(c2cc3ccccc3[nH]2)=N/C1=C\c1[nH]c(C)cc1C` [OBATOCLAX MESYLATE]?
**A.** IC50 [1]: 1980 nM; IC50 [2]: 170 nM; IC50 [3]: 28.5 nM; IC50 [4]: 33.9 nM; IC50 [5]: 1580 nM; IC50 [6]: 817 nM; IC50 [7]: 58 nM; IC50 [8]: 2590 nM; IC50 [9]: 1150 nM; IC50 [10]: 1830 nM; IC50 [11]: 667 nM; IC50 [12]: 83.3 nM; IC50 [13]: 940 nM; IC50 [14]: 5350 nM; IC50 [15]: 29.8 nM; IC50 [16]: 5990 nM; IC50 [17]: 87.2 nM; IC50 [18]: 1690 nM; IC50 [19]: 998 nM; IC50 [20]: 1440 nM; IC50 [21]: 177 nM; IC50 [22]: 1380 nM; IC50 [23]: 5930 nM; IC50 [24]: 1050 nM; IC50 [25]: 850 nM; IC50 [26]: > 16000 nM; IC50 [27]: 9590 nM; IC50 [28]: 38.4 nM; IC50 [29]: 283 nM; IC50 [30]: 30.5 nM; IC50 [31]: 251 nM; IC50 [32]: 1750 nM; IC50 [33]: 49.4 nM; IC50 [34]: 212 nM; IC50 [35]: 44.9 nM; IC50 [36]: < 62.5 nM; IC50 [37]: < 62.5 nM; IC50 [38]: 2020 nM; IC50 [39]: 3120 nM; IC50 [40]: > 16000 nM; IC50 [41]: 20.8 nM; IC50 [42]: < 62.5 nM; IC50 [43]: 453 nM; IC50 [44]: 452 nM; IC50 [45]: 18.3 nM; IC50 [46]: 11700 nM; IC50 [47]: 5990 nM
